Data on 30 compounds can be found in patent US7851637B2, “Compounds and methods for inhibiting the interaction of BCL proteins with binding partners” (Infinity Pharmaceuticals, Inc., priority 2004, dated 2010).

One assay has as its target Bcl-2 (Homo sapiens, UniProt P10415). The assay is described as follows: Bcl-2 binding affinity analysis (fluorescence polarization binding assay). The procedure, abridged:
(§1)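 In vitro measurement of compound binding to each protein by fluorescence polarization, described as sensitive and quantitative.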
(In general: Polarisation of emitted light reports the rotation of a fluorescent probe.)

Assay [1] has as its system Human Pancreatic Cancer Cell Line Panc1. The assay is described as follows: Cell death assay (propidium iodide/Hoechst) in Panc1 cells with or without camptothecin. Type of assay: cell-based. To be noted: 72 hours, % cell death by propidium iodide/Hoechst. As to the method: When RL-cells are exposed to isoxazolidine compounds of the present invention, the inhibitors show a dose-dependent cell-killing in the Alamar blue cytoxicity assay with IC50 values of from about 100 μM to about 1 μM (See Examples). When Panc1 cells are exposed to the isoxazolidine compounds of the present invention in combination with camptothecin, the inhibitors show a synergistic dose-dependent cell killing in the propidium iodide exclusion cell survival assay with IC50 values of from about 100 μM to about 1 μM (See Examples).
• 1) Compounds were serially diluted in DMSO from a 9 mM stock to a final concentration of 0.004 mM in a 96 well plate. • 2) Assay plates were prepared by diluting compounds 310 fold into 150 ul of medium containing 10,000 cells/well, with or without 3 uM Camptothecin, resulting in a final DMSO concentration of 0.3% and a compound concentration range from 29 uM to […] for each compound. • 3) Assay plates were incubated at 37 C, 5% CO2 for 72 hours. • 4) After 72 hours, propidium iodide and Hoechst dye were added to each well according to manufacturer's instruction. • 5) Plates were imaged on a fluorescence microscope at wavelengths Ex560/Em650 (Propidium iodide) and Ex360/Em465 (Hoechst) • 6) MetaMorph imaging software was used to determine % cell death by dividing the number of propidium iodide stained cells (dead cells) by the number of Hoechst stained cells (all cells), multipled by 100, in each field.
Panc1 invitro cellular data is presented below for various compounds of the invention.

In another assay the target is Bcl-xL (Homo sapiens, UniProt Q07817). In words: Bcl-xL binding affinity analysis (fluorescence polarization binding assay). More on the design: scale not given here. Summed up:
as §1

[2] abbreviates: Homo sapiens, PANC-1, without camptothecin, read-out: Panc1 − Cpt IC50.
The mark [3] stands for this setting: with 3 uM Camptothecin, read-out: Panc1 + Cpt IC50.

pIC50, pKi: −log10 of the molar value. Read-outs that look alike come from different tables or passages of the source.

Sequence of Bcl-xL (Q07817 whole entry): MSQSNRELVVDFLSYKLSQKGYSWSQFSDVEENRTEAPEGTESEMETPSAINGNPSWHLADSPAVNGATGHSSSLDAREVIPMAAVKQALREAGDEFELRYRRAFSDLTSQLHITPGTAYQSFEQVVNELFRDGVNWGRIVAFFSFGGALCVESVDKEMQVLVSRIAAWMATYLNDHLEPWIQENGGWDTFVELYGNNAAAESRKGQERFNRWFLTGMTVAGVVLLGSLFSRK
Sequence of Bcl-2 (P10415 whole entry): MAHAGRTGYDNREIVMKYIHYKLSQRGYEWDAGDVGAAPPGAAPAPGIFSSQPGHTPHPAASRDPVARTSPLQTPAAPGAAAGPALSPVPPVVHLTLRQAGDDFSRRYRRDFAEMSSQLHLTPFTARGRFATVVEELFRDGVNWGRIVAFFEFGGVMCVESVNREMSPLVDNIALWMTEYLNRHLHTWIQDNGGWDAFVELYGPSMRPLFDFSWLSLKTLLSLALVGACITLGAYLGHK

For the compound `CC(O)C1C(CO)ON(Cc2cccc(CN(CCN3CCCCC3)Cc3ccccc3)c2)C1C(=O)NC1CC2CC(C1C)C2(C)C` (centres unmarked) [Compound 433], the pKi – broadly, the negative decadic logarithm of the Ki, by convention in mol/L – on Bcl-2 is more than 6.10. Further, the pIC50 in assay [1] (setting [2]) and in assay [1] (setting [3]) was less than 5.60 in each case. For the same compound, the “Bcl-XL binding affinity Ki” value at Bcl-xL is listed as “♯”.
For `CC(O)C1C(CO)ON(Cc2cccc(CNC(CN(C)C)c3ccccc3)c2)C1C(=O)NC1CC2CC(C1C)C2(C)C` (centres unmarked) [Compound 452], the pKi at Bcl-2 is more than 6.10. The pIC50 in assay [1] (setting [2]) and in assay [1] (setting [3]) was less than 5.60 each time. Moreover, at Bcl-xL, the “Bcl-XL binding affinity Ki” value is reported as “♯”.
`COc1cccc(CN(Cc2cccc(CN3OC(CO)C(C(C)O)C3C(=O)NC3CC4CC(C3C)C4(C)C)c2)C(CC(C)C)CN(C)C)c1` (centres unmarked) [Compound 319] showed a pKi on Bcl-2 of more than 6.10. For the same compound, the negative-log IC50 (pIC50) (in general, −log10 of the IC50, conventionally taken in molar units) in assay [1] (setting [2]) is 5.60 to 5.74; in assay [1] (setting [3]) it was 5.74 to 5.89. For the same compound, the “Bcl-XL binding affinity Ki” value on Bcl-xL is “♯”.
For `COc1ccc(CN(CCN(C)C)Cc2cccc(CN3OC(CO)C(C(C)O)C3C(=O)NC3CC4CC(C3C)C4(C)C)c2)cc1` (centres unmarked) [Compound 387], in that order: more than 6.10, less than 5.60, less than 5.60 and “♯”.
At Bcl-2, `CC(C)CC(CN(C)C)N(Cc1cccc(CN2OC(CO)C(C(C)O)C2C(=O)NC2CC3CC(C2C)C3(C)C)c1)CC1CCCCC1` (centres unmarked) [Compound 303] showed a pKi of more than 6.10. Besides, the pIC50 in assay [1] (setting [2]) and in assay [1] (setting [3]) was less than 5.60 throughout. The “Bcl-XL binding affinity Ki” value at Bcl-xL is given as “♯”.
At Bcl-2, `C[C@@H]1[C@@H](NC(=O)[C@@H]2[C@H]([C@H](C)O)[C@H](CO)ON2Cc2cccc(-c3cccc(C(=O)NCCN(C)C)c3)c2OCC2CC2)C[C@H]2C[C@@H]1C2(C)C` [Compound 497] showed a pKi of more than 6.10. Besides, the pIC50 in assay [1] (setting [2]) and in assay [1] (setting [3]) was less than 5.60 throughout. The “Bcl-XL binding affinity Ki” value on Bcl-xL is “♯”.
`CC(C)CC(CN(C)C)N(Cc1cccc(CN2OC(CO)C(C(C)O)C2C(=O)NC2CC3CC(C2C)C3(C)C)c1)Cc1c(F)cccc1Cl` (centres unmarked) [Compound 307] showed a pKi on Bcl-2 of more than 6.10. Besides, the pIC50 in assay [1] (setting [2]) and in assay [1] (setting [3]) was less than 5.60 throughout. For the same compound, the “Bcl-XL binding affinity Ki” value at Bcl-xL was “♯”.
With `CCOc1c(CN2O[C@@H](CO)[C@@H]([C@H](C)O)[C@H]2C(=O)N[C@H]2C[C@H]3C[C@@H]([C@@H]2C)C3(C)C)cccc1-c1cccc(C(=O)NCCN(C)C)c1` [Compound 495], on Bcl-2, the pKi was more than 6.10. Moreover, the pIC50 in assay [1] (setting [2]) and in assay [1] (setting [3]) was less than 5.60 throughout. Also, the “Bcl-XL binding affinity Ki” value at Bcl-xL was “♯”.
Consider `C[C@@H]1[C@@H](NC(=O)[C@@H]2[C@H]([C@H](C)O)[C@H](CO)ON2Cc2cccc(N(CCc3ccccc3)CCN(C)C)c2)C[C@H]2C[C@@H]1C2(C)C` [Compound 578], for which the pKi on Bcl-2 was more than 6.10. For the same compound, the pIC50 in assay [1] (setting [2]) is less than 5.60; in assay [1] (setting [3]) it was 5.60 to 5.74. Further, the “Bcl-XL binding affinity Ki” value on Bcl-xL is “♯”.
Turning to `CC(C)CC(CN(C)C)N(Cc1cccc(O)c1)Cc1cccc(CN2OC(CO)C(C(C)O)C2C(=O)NC2CC3CC(C2C)C3(C)C)c1` (centres unmarked) [Compound 310], the pKi at Bcl-2 was more than 6.10. The figures for the pIC50 in assay [1] (setting [2]) and in assay [1] (setting [3]) were less than 5.60 and 5.60 to 5.74, respectively. Moreover, the “Bcl-XL binding affinity Ki” value at Bcl-xL was “♯”.
`CCC(C)C(CN(C)C)N(Cc1cccc(CN2OC(CO)C(C(C)O)C2C(=O)NC2CC3CC(C2C)C3(C)C)c1)Cc1ccccc1Br` (centres unmarked) [Compound 416] showed a pKi on Bcl-2 of more than 6.10. In addition, the pIC50 in assay [1] (setting [2]) and in assay [1] (setting [3]) was less than 5.60 throughout. Besides, at Bcl-xL, the “Bcl-XL binding affinity Ki” value was “♯”.
Turning to `COc1ccc(COc2c(CN3O[C@@H](CO)[C@@H]([C@H](C)O)[C@H]3C(=O)N[C@H]3C[C@H]4C[C@@H]([C@@H]3C)C4(C)C)cccc2-c2ccc(C(=O)N(C)C)cc2)cc1` [Compound 166], the pKi on Bcl-2 was more than 6.10. The pIC50 is less than 5.60 in assay [1] (setting [2]) and more than 5.89 in assay [1] (setting [3]). Further, the “Bcl-XL binding affinity Ki” value at Bcl-xL is listed as “♯”.
For `COc1c(CN2O[C@@H](CO)[C@@H]([C@H](C)O)[C@H]2C(=O)N[C@H]2C[C@H]3C[C@@H]([C@@H]2C)C3(C)C)cccc1-c1cccc(C(=O)N[C@H](CC2CCCCC2)CN(C)C)c1` [Compound 489], the pKi on Bcl-2 is more than 6.10. Besides, the pIC50 in assay [1] (setting [2]) was less than 5.60; in assay [1] (setting [3]) it was 5.60 to 5.74. Also, on Bcl-xL, the “Bcl-XL binding affinity Ki” value was “♯”.
As for `C[C@@H]1[C@@H](NC(=O)[C@@H]2[C@H]([C@H](C)O)[C@H](CO)ON2Cc2cccc(C#CC3(NC(=O)C4CCN(C)CC4)CCCCC3)c2)CC2C[C@@H]1C2(C)C` [Compound 90], the results for the pIC50 in assay [1] (setting [2]) and in assay [1] (setting [3]) were less than 5.60 and 5.74 to 5.89, respectively.
For `CNC(=O)c1ccccc1-c1cccc(CN2O[C@@H](CO)[C@@H]([C@H](C)O)[C@H]2C(=O)N[C@H]2C[C@H]3C[C@@H]([C@@H]2C)C3(C)C)c1` [Compound 89], in that order: 5.60 to 5.74 and 5.74 to 5.89.
`CC(O)C1C(CO)ON(Cc2cccc(CNC(CCc3ccccc3)CN(C)C)c2)C1C(=O)NC1CC2CC(C1C)C2(C)C` (centres unmarked) [Compound 468] gave a pKi on Bcl-2 of more than 6.10. Also, on Bcl-xL, the “Bcl-XL binding affinity Ki” value is reported as “♯”.
On Bcl-2, `C[C@@H]1[C@@H](NC(=O)[C@@H]2[C@H]([C@H](C)O)[C@H](CO)ON2Cc2cccc(N(CCCN(C)C)CCCN(C)C)c2)C[C@H]2C[C@@H]1C2(C)C` [Compound 583] gave a pKi of more than 6.10. Moreover, on Bcl-xL, the “Bcl-XL binding affinity Ki” value is reported as “♯”.
For `CCN(CC)CCNC(=O)c1cccc(-c2cccc(CN3O[C@@H](CO)[C@@H]([C@H](C)O)[C@H]3C(=O)N[C@H]3C[C@H]4C[C@@H]([C@@H]3C)C4(C)C)c2)c1` [Compound 112], in that order: more than 6.10 and “♯”.
In turn, `C[C@@H](O)[C@H]1[C@@H](CO)ON(Cc2cccc(C#CCNC(=O)c3ccccc3)c2)[C@H]1C(=O)NCc1ccc(Oc2ccccc2)cc1` [Compound 63] gave a pKi at Bcl-2 of 5.22 to 6.10. The “Bcl-XL binding affinity Ki” value at Bcl-xL is on record as “♯”.
The compound `C[C@@H]1[C@@H](NC(=O)[C@@H]2[C@H]([C@H](C)O)[C@H](CO)ON2Cc2cccc(-c3cccc(C(=O)NCCCCN(C)C)c3)c2)C[C@H]2C[C@@H]1C2(C)C` [Compound 113] showed a pKi at Bcl-2 of more than 6.10. Moreover, on Bcl-xL, the “Bcl-XL binding affinity Ki” value was “♯”.
For `CCCCC[C@H](O)C#Cc1cccc(CN2O[C@@H](CO)[C@@H]([C@H](C)O)[C@H]2C(=O)NCCC(C)C)c1` [Compound 41] the same measures were less than 4.30 and “♯”.
`C[C@@H]1[C@@H](NC(=O)[C@@H]2[C@H]([C@H](C)O)[C@H](CO)ON2CCCCN(CCCc2ccccc2)CCN(C)C)C[C@H]2C[C@@H]1C2(C)C` [Compound 545] had a pKi at Bcl-2 of 5.22 to 6.10. Also, the “Bcl-XL binding affinity Ki” value at Bcl-xL is reported as “♯”.
For `C[C@H](O)[C@@H]1[C@H](CO)ON(Cc2cccc(C#C[C@@H](O)c3ccccc3)c2)[C@@H]1C(=O)N[C@H]1C[C@H]2CC([C@@H]1C)C2(C)C` [Compound 52] the same measures were 5.22 to 6.10 and “♯”.
Take `C[C@H](NC(=O)[C@@H]1[C@H]([C@H](C)O)[C@H](CO)ON1Cc1cccc(CN(CCN(C)C)Cc2ccccc2)c1)c1ccc2ccccc2c1` [Compound 521]: the pKi on Bcl-2 was 5.22 to 6.10. Further, the “Bcl-XL binding affinity Ki” value on Bcl-xL was “♯”.
On Bcl-2, `CCCC(CN(C)C)N(Cc1cccc(CN2OC(CO)C(C(C)O)C2C(=O)NC2CC3CC(C2C)C3(C)C)c1)Cc1ccccc1Cl` (centres unmarked) [Compound 438] had a pKi of more than 6.10. At Bcl-xL, the “Bcl-XL binding affinity Ki” value is reported as “♯”.
Take `CC(C)NC(=O)c1cccc(-c2cccc(CN3O[C@@H](CO)[C@@H]([C@H](C)O)[C@H]3C(=O)N[C@H]3C[C@H]4C[C@@H]([C@@H]3C)C4(C)C)c2)c1` [Compound 217]: at Bcl-2, the pKi was more than 6.10. The “Bcl-XL binding affinity Ki” value at Bcl-xL is “♯”.
For `C[C@@H]1[C@@H](NC(=O)[C@@H]2[C@H]([C@H](C)O)[C@H](CO)ON2Cc2cccc(N3CCN(C(=S)NCc4ccccc4)CC3)c2)C[C@H]2C[C@@H]1C2(C)C` [Compound 263], in that order: more than 6.10 and “♯”.
For `CC(O)C1C(CO)ON(Cc2cccc(CN(C)CC(=O)N(C)C)c2)C1C(=O)NC1CC2CC(C1C)C2(C)C` (centres unmarked) [Compound 446] the same measures were more than 6.10 and “♯”.
Compound `C[C@H](O)[C@@H]1[C@H](CO)ON(Cc2cccc(CN(CCN(C)C)Cc3ccccc3)c2)[C@@H]1C(=O)NC1C[C@H]2C[C@@H]([C@@H]1C)C2(C)C` (some centres unmarked) [Compound 221] showed a pKi on Bcl-2 of more than 6.10. The “Bcl-XL binding affinity Ki” value on Bcl-xL is listed as “♯”.
For `C[C@H](O)[C@@H]1[C@H](CO)ON(Cc2cccc(-c3cccc(NS(C)(=O)=O)c3)c2)[C@@H]1C(=O)NC1C[C@H]2C[C@@H]([C@@H]1C)C2(C)C` (some centres unmarked) [Compound 181], the pKi on Bcl-2 is more than 6.10. The “Bcl-XL binding affinity Ki” value at Bcl-xL is reported as “♯♯”.
